# Activity calls are given as the source filed them. No cut-off for these calls is given here.
# Columns and labels:
# [1] = molecular target: T1, Protein cereblon/Dual specificity tyrosine-phosphorylation-regulated kinase 1A (Homo sapiens, UniProt Q13627+Q96SW2); test: Competitive binding affinity to CRBN/DYRK1A (unknown origin) assessed as dissociation constant; format: protein assay
# [2] = molecular target: Protein cereblon/Dual specificity tyrosine-phosphorylation-regulated kinase 1B (Homo sapiens, UniProt Q96SW2+Q9Y463); test: Competitive binding affinity to CRBN/DYRK1B (unknown origin) assessed as dissociation constant; format: protein assay
# [3] = molecular target: T1, Protein cereblon/Dual specificity tyrosine-phosphorylation-regulated kinase 1A; test: PROTAC activity at CRBN/HibiT-tagged DYRK1A in Flp-In-T-REx-293 cells assessed as induction of degradation of DYRK1A at 100 to 300 nM by measured after 24 hrs by NanoBiT luciferase assay; format: cell-based; details: dose 100-300 nM
# [4] = molecular target: T1, Protein cereblon/Dual specificity tyrosine-phosphorylation-regulated kinase 1A; test: PROTAC activity at CRBN/DYRK1A in HEK293 cells assessed as induction of degradation of DYRK1A by measuring maximum efficacy at 1 to 10000 nM incubated for 24 hrs relative to control; format: cell-based; details: dose 1-10000 nM
# [5] = molecular target: T2, Protein cereblon/Dual specificity tyrosine-phosphorylation-regulated kinase 1B (Homo sapiens) (UniProt Q9Y463+Q96SW2); test: PROTAC activity at CRBN/DYRK1B in HEK293 cells assessed as induction of degradation of DYRK1B by measuring maximum efficacy at 1 to 10000 nM incubated for 24 hrs relative to control; format: cell-based; details: dose 1-10000 nM
# [6] = molecular target: T1, Protein cereblon/Dual specificity tyrosine-phosphorylation-regulated kinase 1A; test: PROTAC activity at CRBN/DYRK1A in HEK293 cells assessed as induction of degradation of DYRK1A at 1 to 10000 nM incubated for 24 hrs in presence of leucettine-41; format: cell-based; details: dose 1-10000 nM
# [7] = molecular target: T1, Protein cereblon/Dual specificity tyrosine-phosphorylation-regulated kinase 1A; test: PROTAC activity at CRBN/DYRK1A in HEK293 cells assessed as induction of degradation of DYRK1A at 100 nM measured for 48 hrs by Western blot analysis; format: cell-based
# [8] = test system: HEK293; test: Downregulation of DYRK1B mRNA expression in HEK293 cells at 100 nM measured after 24 hrs by qRT-PCR analysis; format: functional, cell-based; details: Homo sapiens
# [9] = molecular target: T1, Protein cereblon/Dual specificity tyrosine-phosphorylation-regulated kinase 1A; test: PROTAC activity at CRBN/DYRK1A in HEK293 cells assessed as induction of degradation of DYRK1A at 100 nM preincubated for 24 to 72 hrs followed by washout and subsequent addition of medium containing compounds measured for 48 hrs; format: cell-based; details: time 72-120 hrs
# [10] = molecular target: T2, Protein cereblon/Dual specificity tyrosine-phosphorylation-regulated kinase 1B (Homo sapiens); test: PROTAC activity at CRBN/DYRK1B in HEK293 cells overexpressing DYRK1B p65 assessed as induction of degradation of DYRK1B at 1 uM measured after 24 hrs by Western blot analysis; format: cell-based
# [11] = molecular target: T2, Protein cereblon/Dual specificity tyrosine-phosphorylation-regulated kinase 1B (Homo sapiens); test: PROTAC activity at CRBN/DYRK1B in HEK293 cells overexpressing DYRK1B-p69 assessed as induction of degradation of DYRK1B at 1 uM measured after 24 hrs by Western blot analysis; format: cell-based
# [12] = molecular target: T1, Protein cereblon/Dual specificity tyrosine-phosphorylation-regulated kinase 1A; test: PROTAC activity at CRBN/DYRK1A in HEK293 cells assessed as induction of degradation of DYRK1A at 100 nM pretreated with lenalidomide followed by compound addition and incubated for 8 hrs; format: cell-based
# [13] = molecular target: T2, Protein cereblon/Dual specificity tyrosine-phosphorylation-regulated kinase 1B (Homo sapiens); test: PROTAC activity at CRBN/DYRK1B in HEK293 cells assessed as induction of degradation of DYRK1B at 100 nM pretreated with leucettine-41 followed by compound addition and incubated for 8 hrs; format: cell-based
# [14] = molecular target: T1, Protein cereblon/Dual specificity tyrosine-phosphorylation-regulated kinase 1A; test: PROTAC activity at CRBN/DYRK1A in HEK293 cells assessed as induction of degradation of DYRK1A at 100 nM pretreated with CB-5083 followed by compound addition and incubated for 8 hrs; format: cell-based
# [15] = molecular target: T2, Protein cereblon/Dual specificity tyrosine-phosphorylation-regulated kinase 1B (Homo sapiens); test: PROTAC activity at CRBN/DYRK1B in Flp-In-T-REx-293 cells overexpressing GFP-DYRK1B assessed as initial rate of degradation at 1 uM measured upto 6 hrs by fluorescence based phase contrast microscopy analysis; format: cell-based
# [16] = molecular target: T2, Protein cereblon/Dual specificity tyrosine-phosphorylation-regulated kinase 1B (Homo sapiens); test: PROTAC activity at CRBN/DYRK1B in Flp-In-T-REx-293 cells overexpressing GFP-DYRK1B assessed as half life at 1 uM measured upto 6 hrs by fluorescence based phase contrast microscopy analysis; format: cell-based
# [17] = molecular target: T1, Protein cereblon/Dual specificity tyrosine-phosphorylation-regulated kinase 1A; test: PROTAC activity at CRBN/DYRK1A in Flp-In-T-REx-293 cells overexpressing GFP-DYRK1A assessed as maximal reduction of GFP fluorescence at 1 uM measured upto 6 hrs by fluorescence based phase contrast microscopy analysis relative to control; format: cell-based
# [18] = molecular target: T1, Protein cereblon/Dual specificity tyrosine-phosphorylation-regulated kinase 1A; test: PROTAC activity at CRBN/DYRK1A in human SH-SY5Y cells assessed as induction of degradation of DYRK1A at 100 nM incubated for 8 hrs relative to control; format: cell-based
# [19] = molecular target: T1, Protein cereblon/Dual specificity tyrosine-phosphorylation-regulated kinase 1A; test: PROTAC activity at CRBN/DYRK1A in human A549 cells assessed as induction of degradation of DYRK1A at 100 nM incubated for 8 hrs relative to control; format: cell-based
# [20] = molecular target: T1, Protein cereblon/Dual specificity tyrosine-phosphorylation-regulated kinase 1A; test: PROTAC activity at CRBN/DYRK1A in human PANC-1 cells assessed as induction of degradation of DYRK1A at 100 nM incubated for 8 hrs; format: cell-based
# [21] = molecular target: T1, Protein cereblon/Dual specificity tyrosine-phosphorylation-regulated kinase 1A; test: PROTAC activity at CRBN/DYRK1A in human OVCAR-3 cells assessed as induction of degradation of DYRK1A at 100 nM incubated for 8 hrs; format: cell-based
# [22] = molecular target: T1, Protein cereblon/Dual specificity tyrosine-phosphorylation-regulated kinase 1A; test: PROTAC activity at CRBN/DYRK1A in human A549 cells assessed as induction of degradation of DYRK1A at 100 nM incubated for 24 hrs; format: cell-based
# [23] = molecular target: T1, Protein cereblon/Dual specificity tyrosine-phosphorylation-regulated kinase 1A; test: PROTAC activity at CRBN/DYRK1A in SH-SY5Y cells assessed as induction of degradation of DYRK1A at 100 nM incubated for 24 hrs; format: cell-based
# [24] = Metabolic stability in rat liver microsomes assessed as half life; format: ADME, Microsome
# [25] = Metabolic stability in human liver microsomes assessed as half life; format: ADME, Microsome
# [26] = Metabolic stability in rat liver microsomes assessed as intrinsic clearance; format: ADME, Microsome; details: read-out: CLH
# [27] = Metabolic stability in human liver microsomes assessed as intrinsic clearance; format: ADME, Microsome; details: read-out: CLH
# [28] = Plasma protein binding (unknown origin); format: ADME, cell-free; details: read-out: PPB
# [29] = Permeability of the compound in human Caco-2 cells across apical to basolateral side; format: ADME, cell-based; details: read-out: permeability
# [30] = molecular target: T1, Protein cereblon/Dual specificity tyrosine-phosphorylation-regulated kinase 1A; test: Competitive binding affinity to CRBN/DYRK1A (unknown origin) assessed as association rate constant Kon; format: protein assay
# [31] = molecular target: T1, Protein cereblon/Dual specificity tyrosine-phosphorylation-regulated kinase 1A; test: Competitive binding affinity to CRBN/DYRK1A (unknown origin) assessed as dissociation rate constant Koff; format: protein assay
# [32] = Half life in mouse at 1 mg/kg, iv administered as single dose; format: ADME, organism-based; details: in vivo
# [33] = AUC infinity in mouse at 1 mg/kg, iv administered as single dose; format: ADME, organism-based; details: in vivo
# [34] = Tmax in mouse at 10 mg/kg, ip administered as single dose; format: ADME, organism-based; details: in vivo
# [35] = Half life in mouse at 10 mg/kg, ip administered as single dose; format: ADME, organism-based; details: in vivo
# [36] = Bioavailability in mouse at 10 mg/kg, ip administered as single dose; format: ADME, organism-based; details: in vivo
# [37] = Tmax in mouse at 10 mg/kg, po administered as single dose; format: ADME, organism-based; details: in vivo
# [38] = AUC last in mouse at 10 mg/kg, po administered as single dose; format: ADME, organism-based; details: in vivo
structure (smiles),measurement,setting,value
Cc1nc2ccc(-c3ccnc(N)c3)nc2n1-c1ccc(N2CCN(CC#Cc3ccc(N4CCC(C(=O)N5CCC(n6cc(CNc7cccc8c7C(=O)N(C7CCC(=O)NC7=O)C8=O)cn6)CC5)CC4)nc3)CC2)c(F)c1 (stereo not drawn),Kd,[1],0.0063 µM
same,Kd,[2],0.016 µM
same,Activity,[3],Active
same,Emax,[4],90%
same,Emax,[5],50%
same,Activity,[6],inactive
same,Activity,[7],Active
same,Activity,[8],inactive
same,Activity,[9],Active
same,Activity,[10],inactive
same,Activity,[11],Active
same,Activity,[12],inactive
same,Activity,[13],inactive
same,Activity,[14],inactive
same,Activity,[15],1.16 h⁻¹
same,T1/2,[16],0.6 h
same,Emax,[17],98%
same,Activity,[18],100%
same,Activity,[19],100%
same,Activity,[20],Active; Compound Showed Partial Degradation
same,Activity,[21],inactive
same,Activity,[22],Active
same,Activity,[23],Active
same,half-life,[24],1.64 h
same,half-life,[25],2.28 h
same,CLint scaled,[26],14 mL/min/kg
same,CLint scaled,[27],10.1 mL/min/kg
same,fraction unbound,[28],< 0.0062
same,Papp A→B,[29],< 0.27 ×10⁻⁶ cm/s
same,K,[30],1.83 10^5/M/s
same,K,[31],7.25 10^-4/s
same,half-life,[32],3.33 h
same,AUC(0-inf),[33],2470 ng·h/mL
same,Tmax,[34],0.25 h
same,half-life,[35],4.75 h
same,bioavailability,[36],109%
same,Tmax,[37],0.5 h
same,AUC(0-t),[38],56 ng·h/mL

# Reference: ChEMBL document CHEMBL6120970, “Discovery and Functional Characterization of a Potent, Selective, and Metabolically Stable PROTAC of the Protein Kinases DYRK1A and DYRK1B” (J Med Chem, 2024)
